Literature values, collected in US12558321B2, “Pharmaceutical formulation” (CIPLA LIMITED, priority 2018, dated 2026).

COC(=O)c1ccc2c(c1)NC(=O)/C2=C(\Nc1ccc(N(C)C(=O)CN2CCN(C)CC2)cc1)c1ccccc1 [Nintedanib]
solubility at neutral conditions (neutral conditions): poor solubility | solubility in water (water): slightly soluble in water
